Reference: ChEMBL document CHEMBL5729478, “Alpha-5 beta-1 inhibitors” (2022)

The compounds below were run against Integrin alpha-5/beta-1 (Homo sapiens, UniProt P05556+P08648) (assay: Cell Adhesion Assay: Evaluation of cell attachment to extracellular matrix proteins was performed as previously described by Yokosaki et al, J. Biol. Chem., 271: (39): 24144-24150 (1996). Briefly, wells of non-tissue culture-treated polystyrene 96-well flat-bottom microtiter plates (Linbro/Titertek, Flow Laboratories, McLean, Va.) were coated by incubation with 100 μl of each substrate in PBS at 37° C. for 1 hour. 96-well flat-bottomed tissue culture plates were coated with human plasma fibronectin for 1 hour at 37° C. After incubation, wells were washed with PBS, then blocked with 1% bovine serum albumin (BSA) for one hour. Control wells were filled with 1% BSA. SW480 cells were detached using 10 mM EDTA and resuspended in serum-free DMEM. For blocking experiments, cells were incubated with 10 μg/ml of the antibody for 15 minutes at 4° C. before plating. The plates were centrifuged at 10 g for 5 minutes before incubation for 1 hour at 37° C. in humidified 5% CO2. Nonadherent cells were removed by centrifugation (top side down) at 10 g for 5 minutes. Attached cells were stained with 0.5% crystal violet, and the wells were washed with PBS. The relative number of cells in each well was evaluated after solubilization in 40 μl of 2% Triton X-100 by measuring absorbance at 595 nm in a microplate reader. All determinations were carried out in triplicate.).
Chain of Integrin alpha-5/beta-1 (P05556 21-798 limits assumed): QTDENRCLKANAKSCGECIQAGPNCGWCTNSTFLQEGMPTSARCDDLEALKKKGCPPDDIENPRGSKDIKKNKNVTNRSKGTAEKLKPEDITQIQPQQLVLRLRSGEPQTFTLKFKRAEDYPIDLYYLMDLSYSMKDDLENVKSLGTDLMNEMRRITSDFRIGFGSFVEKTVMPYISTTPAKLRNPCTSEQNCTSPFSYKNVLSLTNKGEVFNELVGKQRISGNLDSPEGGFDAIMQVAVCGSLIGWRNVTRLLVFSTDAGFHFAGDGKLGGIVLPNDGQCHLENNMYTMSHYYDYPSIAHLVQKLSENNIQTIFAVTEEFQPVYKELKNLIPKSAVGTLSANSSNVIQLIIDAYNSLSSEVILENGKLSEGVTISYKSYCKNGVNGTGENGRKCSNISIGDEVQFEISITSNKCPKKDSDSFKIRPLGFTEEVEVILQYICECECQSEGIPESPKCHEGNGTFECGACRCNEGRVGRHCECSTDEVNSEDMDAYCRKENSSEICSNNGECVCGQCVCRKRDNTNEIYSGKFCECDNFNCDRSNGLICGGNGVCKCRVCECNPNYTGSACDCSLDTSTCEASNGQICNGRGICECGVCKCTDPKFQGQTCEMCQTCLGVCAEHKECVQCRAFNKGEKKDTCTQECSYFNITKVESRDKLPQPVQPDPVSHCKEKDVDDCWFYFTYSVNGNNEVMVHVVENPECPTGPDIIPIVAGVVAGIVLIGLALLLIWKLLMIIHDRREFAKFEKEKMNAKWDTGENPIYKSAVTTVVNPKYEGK
Chain of Integrin alpha-5/beta-1 (P08648 42-894 limits assumed): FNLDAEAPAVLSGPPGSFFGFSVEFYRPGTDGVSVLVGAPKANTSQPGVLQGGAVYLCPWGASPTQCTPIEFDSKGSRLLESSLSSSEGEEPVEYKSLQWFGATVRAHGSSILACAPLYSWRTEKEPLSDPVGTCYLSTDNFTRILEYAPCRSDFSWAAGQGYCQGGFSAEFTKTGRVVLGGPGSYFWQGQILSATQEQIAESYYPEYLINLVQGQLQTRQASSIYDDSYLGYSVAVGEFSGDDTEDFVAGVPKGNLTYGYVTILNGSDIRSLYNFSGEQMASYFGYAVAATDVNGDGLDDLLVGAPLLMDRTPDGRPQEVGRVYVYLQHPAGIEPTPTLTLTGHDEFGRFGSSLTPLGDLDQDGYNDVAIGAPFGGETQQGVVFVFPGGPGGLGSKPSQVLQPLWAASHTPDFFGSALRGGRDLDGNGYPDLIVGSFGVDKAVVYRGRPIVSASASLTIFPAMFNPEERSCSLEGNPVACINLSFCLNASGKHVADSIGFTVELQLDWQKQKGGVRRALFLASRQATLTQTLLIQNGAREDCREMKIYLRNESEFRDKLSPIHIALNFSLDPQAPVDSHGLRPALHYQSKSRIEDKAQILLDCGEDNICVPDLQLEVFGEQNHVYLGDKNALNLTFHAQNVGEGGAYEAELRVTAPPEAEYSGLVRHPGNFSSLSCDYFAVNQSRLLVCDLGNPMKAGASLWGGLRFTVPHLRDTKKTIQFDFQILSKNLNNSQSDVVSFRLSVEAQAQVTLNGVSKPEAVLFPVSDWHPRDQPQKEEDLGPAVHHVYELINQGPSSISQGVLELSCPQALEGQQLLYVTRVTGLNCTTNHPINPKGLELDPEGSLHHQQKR
Chain of Integrin alpha-5/beta-1 (P08648 895-1049 limits assumed): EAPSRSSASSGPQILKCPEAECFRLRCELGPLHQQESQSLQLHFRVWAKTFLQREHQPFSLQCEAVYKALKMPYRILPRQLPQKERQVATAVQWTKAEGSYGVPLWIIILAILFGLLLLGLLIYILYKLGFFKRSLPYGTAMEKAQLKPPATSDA

| IC50 [nM] | Compound |
| --- | --- |
| < 100 | O=C(CNC(=O)c1cccc(NC2=NCC(O)CN2)c1)NC[C@H](NC(=O)c1c(Cl)cc(-c2ccccc2)cc1Cl)C(=O)O (stereo partly drawn) |
| < 100 | N#Cc1cc(NC(=N)N)cc(C(=O)NCC(=O)NC[C@H](NC(=O)c2c(Cl)cc(-c3ccccc3)cc2Cl)C(=O)O)c1 |
| < 100 | O=C(CNC(=O)c1cccc(NC2=NCCCO2)c1)NC[C@H](NC(=O)c1c(Cl)cc(-c2ccccc2)cc1Cl)C(=O)O |
